# Data published in ChEMBL document CHEMBL1201862, “PubChem BioAssay data set” (2004).
# The source made the active and inactive calls.
# Key:
# Estrogen receptor beta = Estrogen receptor beta (Homo sapiens, UniProt Q92731);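 also: recombinant ER-beta bound to coactivator SRC1 peptide in presence of estradiol agonist; inhibitors block coactivator peptide binding and lower the FRET signal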
# INS1 = assay: beta cell apoptosis inhibitors, cytokine rescue, dose response, luminescence, retest (AID 449756); format: functional, cell-based; conditions: Rattus norvegicus;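 also: cell death triggered by IL-1 beta plus TNF-alpha plus IFN-gamma mixture; protective hits raise ATP signal compared with cytokine alone wells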
# [1] = NIH-3T3 fibroblast cytotoxicity, dose response, cytotoxicity control, cell-based, fluorescence, Alamar Blue, secondary assay (AID 2327); format: functional;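 also: NIH-3T3 mouse fibroblasts cultured with fluconazole at 8 µg/mL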
# [2] = cytotoxicity toward NIH3T3 fibroblasts, dose response, counter-screen, cell-based, ATP luminescence, mouse fibroblasts (AID 2010); format: functional;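 also: cells exposed to compound for about 90 hours before reading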
# [3] = C. albicans growth with fluconazole, confirmation, fluorescence, retest (AID 2467); format: functional, cell-based
# cells [4] = assay: cells
# [5] = inhibitors of intracellular T. cruzi replication, confirmation, NIH3T3 host cells, beta-gal luminescence (AID 2044); format: functional, cell-based;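 also: intracellular parasites grown in NIH/3T3 mouse fibroblasts as host cells; luminescent beta-galactosidase reporter signal from transgenic T. cruzi replicating inside host cells; inhibitors lower the luminescence signal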
# [6] = A cytotoxicity screen of small molecule inhibitors of the PhoP region in Salmonella typhi identified in the primary screen. [Related pubchem assays: 1850, 1864, 1985 ]; format: functional
# Galanin receptor type 3 = target: T1, Galanin receptor type 3 (Homo sapiens, UniProt O60755); assay: Fluorescence-based cell-based primary high throughput dose response assay to identify antagonists of the Galanin Receptor 3 (GalR3).; format: functional
# T1 sequence (O60755 whole entry): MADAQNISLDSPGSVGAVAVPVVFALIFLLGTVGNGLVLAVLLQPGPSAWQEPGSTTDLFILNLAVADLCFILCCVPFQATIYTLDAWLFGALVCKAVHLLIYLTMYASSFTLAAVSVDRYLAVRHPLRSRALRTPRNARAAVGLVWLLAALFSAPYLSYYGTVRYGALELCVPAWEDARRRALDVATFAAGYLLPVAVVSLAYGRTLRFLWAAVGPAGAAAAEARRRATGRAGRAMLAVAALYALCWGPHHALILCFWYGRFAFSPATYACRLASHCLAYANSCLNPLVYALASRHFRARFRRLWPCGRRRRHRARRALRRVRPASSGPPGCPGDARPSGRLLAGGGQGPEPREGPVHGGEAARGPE
# cells [7] = format: functional, cell-based; conditions: HEK-CNG
# [8] = ADAM10 inhibitors, peptide cleavage, dose response, biochemical, QFRET (AID 743254);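 also: ADAM10 enzyme with the DM2 quenched FRET peptide as substrate; EDANS fluorescence gain as the protease cuts the substrate; inhibitor potency against ADAM10 proteolytic activity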
# [9] = HepG2 cell cytotoxicity, dose response, cytotoxicity control, plate reader, cherry-pick, antagonist series (AID 743416); format: functional, cell-based
# [10] = LGR2 antagonists, dose response, cell-based, HEK293, CRE-luciferase reporter, cherry pick, set 2 (AID 743343); format: functional;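 also: transfected cells were stimulated with diluted bursicon conditioned medium after compound addition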
# [11] = target: Disintegrin and metalloproteinase domain-containing protein 17 (Homo sapiens, UniProt P78536); assay: ADAM17 protease inhibitors, dose response, counter-screen for ADAM10 exosite inhibitor project, biochemical, quenched FRET substrate (AID 743253)
# Sequence of Disintegrin and metalloproteinase domain-containing protein 17 (P78536 whole entry, the tested form may be a part): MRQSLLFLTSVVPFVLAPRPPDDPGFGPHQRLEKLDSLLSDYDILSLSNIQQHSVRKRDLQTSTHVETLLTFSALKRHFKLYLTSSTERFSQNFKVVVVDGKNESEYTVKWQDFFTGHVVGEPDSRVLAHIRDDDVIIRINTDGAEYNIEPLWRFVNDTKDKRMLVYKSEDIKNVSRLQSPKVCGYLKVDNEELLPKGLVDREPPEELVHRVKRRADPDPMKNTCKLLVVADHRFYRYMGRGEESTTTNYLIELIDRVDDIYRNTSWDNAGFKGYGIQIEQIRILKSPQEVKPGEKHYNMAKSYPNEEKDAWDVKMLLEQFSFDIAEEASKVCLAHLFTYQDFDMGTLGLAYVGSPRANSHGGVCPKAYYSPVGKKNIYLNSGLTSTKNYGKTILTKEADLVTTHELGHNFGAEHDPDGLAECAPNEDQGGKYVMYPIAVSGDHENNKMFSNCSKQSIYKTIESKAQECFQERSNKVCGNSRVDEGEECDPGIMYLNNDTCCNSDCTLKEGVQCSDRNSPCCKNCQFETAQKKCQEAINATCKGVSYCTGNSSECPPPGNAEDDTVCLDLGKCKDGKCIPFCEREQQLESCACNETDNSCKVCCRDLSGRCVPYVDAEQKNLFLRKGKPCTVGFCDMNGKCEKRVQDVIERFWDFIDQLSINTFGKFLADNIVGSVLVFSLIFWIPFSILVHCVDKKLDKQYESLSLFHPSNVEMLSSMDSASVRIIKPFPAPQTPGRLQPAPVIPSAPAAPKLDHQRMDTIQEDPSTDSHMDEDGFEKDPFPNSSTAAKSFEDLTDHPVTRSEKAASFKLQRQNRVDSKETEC
# [12] = A549 cell cytotoxicity, dose response, cytotoxicity control, plate reader, cherry-pick, antagonist series (AID 743412); format: functional, cell-based
# Estrogen receptor = target: T2, Estrogen receptor (Homo sapiens, UniProt P03372);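 also: potency for inhibiting coactivator peptide recruitment to the receptor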
# T2 sequence (P03372 whole entry): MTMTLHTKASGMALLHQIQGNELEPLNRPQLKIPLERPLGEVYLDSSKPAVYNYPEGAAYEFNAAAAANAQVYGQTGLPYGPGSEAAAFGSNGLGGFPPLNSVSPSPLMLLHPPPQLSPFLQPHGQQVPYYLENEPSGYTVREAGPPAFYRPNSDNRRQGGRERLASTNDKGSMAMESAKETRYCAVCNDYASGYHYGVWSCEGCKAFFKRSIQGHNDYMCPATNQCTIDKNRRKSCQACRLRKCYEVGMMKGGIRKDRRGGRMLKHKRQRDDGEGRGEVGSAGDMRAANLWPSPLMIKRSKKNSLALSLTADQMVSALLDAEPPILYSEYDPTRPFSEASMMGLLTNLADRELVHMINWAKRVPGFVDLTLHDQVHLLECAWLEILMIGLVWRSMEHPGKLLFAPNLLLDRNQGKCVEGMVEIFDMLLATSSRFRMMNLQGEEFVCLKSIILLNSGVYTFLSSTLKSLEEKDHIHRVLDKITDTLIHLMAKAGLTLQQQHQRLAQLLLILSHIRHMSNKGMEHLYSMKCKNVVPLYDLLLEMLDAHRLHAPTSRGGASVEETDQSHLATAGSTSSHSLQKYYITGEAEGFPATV
# [13] = target: T3, Oxysterols receptor LXR-beta (Homo sapiens, UniProt P55055); assay: LXR agonists, Gal4 luciferase reporter, dose response, counter-screen for ssDAF-12 agonist project, cell-based, luminescence, HEK293, S. stercoralis campaign (AID 720737); format: functional; conditions: read-out: IC50 (the source's name)
# T3 sequence (P55055 whole entry): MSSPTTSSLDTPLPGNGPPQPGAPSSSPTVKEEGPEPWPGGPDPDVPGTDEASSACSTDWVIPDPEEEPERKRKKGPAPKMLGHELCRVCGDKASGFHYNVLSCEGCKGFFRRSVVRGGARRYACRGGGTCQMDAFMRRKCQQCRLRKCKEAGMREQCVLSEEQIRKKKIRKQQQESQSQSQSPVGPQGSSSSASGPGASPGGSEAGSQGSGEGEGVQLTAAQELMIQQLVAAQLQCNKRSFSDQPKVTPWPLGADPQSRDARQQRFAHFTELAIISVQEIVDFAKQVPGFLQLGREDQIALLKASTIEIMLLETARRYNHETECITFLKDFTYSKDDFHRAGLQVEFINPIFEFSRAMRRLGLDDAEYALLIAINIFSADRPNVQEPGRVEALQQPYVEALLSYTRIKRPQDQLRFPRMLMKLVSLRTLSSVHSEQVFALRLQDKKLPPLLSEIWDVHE
# [14] = Luminescence-based cell-based high throughput dose response assay to identify activators of the DAF-12 from the parasite S. stercoralis (ssDAF-12).; format: functional
# [15] = HEp-2 cell cytotoxicity, dose response, cytotoxicity control for RSV inhibitor project, HTS (AID 2410); format: functional; conditions: human respiratory syncytial virus
# [16] = target: T4, DNA repair protein RAD52 homolog (Homo sapiens, UniProt P43351); format: functional, biochemical
# T4 sequence (P43351 whole entry): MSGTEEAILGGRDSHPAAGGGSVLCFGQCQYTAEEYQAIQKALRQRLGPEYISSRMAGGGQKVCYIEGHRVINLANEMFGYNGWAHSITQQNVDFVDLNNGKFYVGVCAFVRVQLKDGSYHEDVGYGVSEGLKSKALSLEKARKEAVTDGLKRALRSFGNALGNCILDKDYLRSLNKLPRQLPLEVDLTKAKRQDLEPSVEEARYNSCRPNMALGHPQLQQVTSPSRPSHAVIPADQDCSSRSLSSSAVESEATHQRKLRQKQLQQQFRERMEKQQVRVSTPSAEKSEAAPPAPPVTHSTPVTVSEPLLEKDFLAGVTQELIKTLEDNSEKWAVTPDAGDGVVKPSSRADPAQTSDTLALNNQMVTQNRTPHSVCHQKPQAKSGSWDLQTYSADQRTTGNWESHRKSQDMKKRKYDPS
# [17] = inhibitors of Vif binding to APOBEC3G peptide, primary screen, biochemical, TR-FRET, GST-Vif 1-94, biotin-A3G peptide, dose response retest (AID 1117319); format: functional;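 also: TR-FRET signal of purified GST-Vif binding a biotinylated A3G peptide; inhibitors lower the FRET signal by blocking Vif and A3G binding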
# [18] = target: T5, Voltage-gated N-type calcium channel alpha-1B subunit/Amyloid beta A4 precursor protein-binding family A member 1 (Homo sapiens, UniProt Q00975+Q02410); format: protein assay
# T5 sequence (Q00975 whole entry): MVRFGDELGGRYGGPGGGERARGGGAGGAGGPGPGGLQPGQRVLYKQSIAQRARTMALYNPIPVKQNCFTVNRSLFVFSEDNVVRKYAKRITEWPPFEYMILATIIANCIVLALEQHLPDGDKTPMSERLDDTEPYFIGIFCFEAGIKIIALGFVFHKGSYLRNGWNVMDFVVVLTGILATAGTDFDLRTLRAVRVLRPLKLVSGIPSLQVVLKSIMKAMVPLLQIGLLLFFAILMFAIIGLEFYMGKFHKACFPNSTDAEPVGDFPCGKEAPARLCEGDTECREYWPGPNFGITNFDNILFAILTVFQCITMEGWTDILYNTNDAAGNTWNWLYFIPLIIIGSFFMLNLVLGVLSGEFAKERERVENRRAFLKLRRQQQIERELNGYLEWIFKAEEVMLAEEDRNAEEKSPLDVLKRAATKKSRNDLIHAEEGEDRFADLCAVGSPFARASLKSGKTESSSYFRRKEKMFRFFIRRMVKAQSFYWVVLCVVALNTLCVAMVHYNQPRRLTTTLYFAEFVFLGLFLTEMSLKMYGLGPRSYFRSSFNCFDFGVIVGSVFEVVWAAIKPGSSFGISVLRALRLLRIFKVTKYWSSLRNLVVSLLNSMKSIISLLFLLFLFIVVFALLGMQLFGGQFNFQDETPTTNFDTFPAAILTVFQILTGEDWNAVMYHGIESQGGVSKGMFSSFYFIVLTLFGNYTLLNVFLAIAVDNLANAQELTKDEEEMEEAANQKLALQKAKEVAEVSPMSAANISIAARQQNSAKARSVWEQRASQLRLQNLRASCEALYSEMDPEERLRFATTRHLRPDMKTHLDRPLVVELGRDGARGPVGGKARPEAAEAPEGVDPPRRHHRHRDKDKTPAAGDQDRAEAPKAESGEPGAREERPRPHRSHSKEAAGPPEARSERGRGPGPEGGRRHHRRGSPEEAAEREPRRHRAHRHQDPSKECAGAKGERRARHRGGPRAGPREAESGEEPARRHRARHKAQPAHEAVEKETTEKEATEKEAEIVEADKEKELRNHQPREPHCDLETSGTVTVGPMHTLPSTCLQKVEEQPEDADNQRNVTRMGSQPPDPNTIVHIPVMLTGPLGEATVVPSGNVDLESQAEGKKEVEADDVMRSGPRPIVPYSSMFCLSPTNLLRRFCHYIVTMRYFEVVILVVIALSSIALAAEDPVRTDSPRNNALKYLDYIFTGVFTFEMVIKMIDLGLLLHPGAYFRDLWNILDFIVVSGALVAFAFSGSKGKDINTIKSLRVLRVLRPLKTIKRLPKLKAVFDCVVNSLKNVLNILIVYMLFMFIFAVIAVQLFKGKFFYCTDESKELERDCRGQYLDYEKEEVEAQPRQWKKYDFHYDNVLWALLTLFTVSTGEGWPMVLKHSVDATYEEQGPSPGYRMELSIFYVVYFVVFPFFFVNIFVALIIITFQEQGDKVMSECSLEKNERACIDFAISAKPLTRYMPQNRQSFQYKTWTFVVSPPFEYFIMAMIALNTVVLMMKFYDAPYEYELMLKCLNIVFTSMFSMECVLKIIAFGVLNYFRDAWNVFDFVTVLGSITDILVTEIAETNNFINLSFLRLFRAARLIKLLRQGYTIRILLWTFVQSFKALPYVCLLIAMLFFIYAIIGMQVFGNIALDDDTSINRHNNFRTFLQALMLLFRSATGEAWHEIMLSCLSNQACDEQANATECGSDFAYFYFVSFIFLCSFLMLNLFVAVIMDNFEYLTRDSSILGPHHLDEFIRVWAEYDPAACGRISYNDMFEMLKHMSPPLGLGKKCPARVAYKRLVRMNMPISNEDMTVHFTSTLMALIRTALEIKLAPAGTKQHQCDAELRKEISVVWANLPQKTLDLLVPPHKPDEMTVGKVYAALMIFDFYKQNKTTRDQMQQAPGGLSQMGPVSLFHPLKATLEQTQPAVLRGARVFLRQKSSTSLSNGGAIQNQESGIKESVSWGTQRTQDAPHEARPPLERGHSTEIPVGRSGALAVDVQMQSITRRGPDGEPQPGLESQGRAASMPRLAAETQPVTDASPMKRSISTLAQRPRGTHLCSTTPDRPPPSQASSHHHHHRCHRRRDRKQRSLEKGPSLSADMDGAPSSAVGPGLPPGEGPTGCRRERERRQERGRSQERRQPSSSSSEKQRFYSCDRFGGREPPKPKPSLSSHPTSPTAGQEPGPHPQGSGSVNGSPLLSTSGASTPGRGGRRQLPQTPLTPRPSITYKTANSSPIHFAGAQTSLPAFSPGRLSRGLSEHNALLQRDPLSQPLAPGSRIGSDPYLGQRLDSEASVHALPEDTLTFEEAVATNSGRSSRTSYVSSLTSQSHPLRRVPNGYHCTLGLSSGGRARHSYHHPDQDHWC
# T5 sequence (Q02410 whole entry): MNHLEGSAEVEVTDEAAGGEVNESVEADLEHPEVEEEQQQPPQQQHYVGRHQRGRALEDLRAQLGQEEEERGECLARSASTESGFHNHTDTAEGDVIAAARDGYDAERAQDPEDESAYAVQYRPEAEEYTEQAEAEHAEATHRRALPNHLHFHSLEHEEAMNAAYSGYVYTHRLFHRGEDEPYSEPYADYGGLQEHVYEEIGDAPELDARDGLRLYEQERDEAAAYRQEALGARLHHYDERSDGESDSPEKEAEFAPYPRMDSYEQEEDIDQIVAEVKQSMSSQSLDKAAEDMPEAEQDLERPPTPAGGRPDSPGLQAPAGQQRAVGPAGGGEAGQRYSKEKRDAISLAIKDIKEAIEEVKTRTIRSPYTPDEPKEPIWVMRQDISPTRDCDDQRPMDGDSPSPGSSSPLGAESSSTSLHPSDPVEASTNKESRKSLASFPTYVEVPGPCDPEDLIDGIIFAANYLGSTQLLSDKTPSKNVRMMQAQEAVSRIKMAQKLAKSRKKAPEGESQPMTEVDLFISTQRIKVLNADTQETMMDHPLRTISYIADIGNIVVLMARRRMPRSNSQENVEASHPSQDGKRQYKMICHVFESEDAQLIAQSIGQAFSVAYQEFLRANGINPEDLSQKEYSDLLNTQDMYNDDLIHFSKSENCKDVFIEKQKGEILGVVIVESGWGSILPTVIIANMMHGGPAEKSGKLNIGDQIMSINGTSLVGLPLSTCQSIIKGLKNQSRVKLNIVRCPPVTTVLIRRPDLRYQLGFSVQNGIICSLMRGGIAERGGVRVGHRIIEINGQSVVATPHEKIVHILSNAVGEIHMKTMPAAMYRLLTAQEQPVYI
# [19] = target: FAD-linked sulfhydryl oxidase ALR (Homo sapiens, UniProt P55789); assay: inhibitors of human ALR sulfhydryl oxidase, dose response, biochemical, H2O2 detection, luminescence, cherry-pick (AID 493248)
# Sequence of FAD-linked sulfhydryl oxidase ALR (P55789 whole entry): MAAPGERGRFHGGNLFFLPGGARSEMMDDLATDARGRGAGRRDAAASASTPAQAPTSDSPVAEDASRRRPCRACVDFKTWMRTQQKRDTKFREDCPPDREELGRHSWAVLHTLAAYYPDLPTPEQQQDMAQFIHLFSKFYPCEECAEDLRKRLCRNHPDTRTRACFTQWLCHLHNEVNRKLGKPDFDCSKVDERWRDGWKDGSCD
# [20] = target: Induced myeloid leukemia cell differentiation protein Mcl-1 (Homo sapiens, UniProt Q07820); format: functional
# Sequence of Induced myeloid leukemia cell differentiation protein Mcl-1 (Q07820 whole entry): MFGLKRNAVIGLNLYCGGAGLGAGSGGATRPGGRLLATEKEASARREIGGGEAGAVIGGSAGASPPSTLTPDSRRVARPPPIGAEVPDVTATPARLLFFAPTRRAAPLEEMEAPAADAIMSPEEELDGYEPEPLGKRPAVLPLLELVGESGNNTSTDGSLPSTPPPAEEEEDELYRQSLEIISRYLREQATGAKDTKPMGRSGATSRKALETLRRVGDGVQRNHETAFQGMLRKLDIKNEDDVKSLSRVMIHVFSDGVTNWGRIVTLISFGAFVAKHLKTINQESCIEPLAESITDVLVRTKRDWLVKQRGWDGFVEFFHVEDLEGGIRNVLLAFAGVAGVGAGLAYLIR
# [21] = target: T5, Voltage-gated N-type calcium channel alpha-1B subunit/Amyloid beta A4 precursor protein-binding family A member 1; format: protein assay; remark: listed apart in the source
# Sequence of Estrogen receptor beta (Q92731 whole entry): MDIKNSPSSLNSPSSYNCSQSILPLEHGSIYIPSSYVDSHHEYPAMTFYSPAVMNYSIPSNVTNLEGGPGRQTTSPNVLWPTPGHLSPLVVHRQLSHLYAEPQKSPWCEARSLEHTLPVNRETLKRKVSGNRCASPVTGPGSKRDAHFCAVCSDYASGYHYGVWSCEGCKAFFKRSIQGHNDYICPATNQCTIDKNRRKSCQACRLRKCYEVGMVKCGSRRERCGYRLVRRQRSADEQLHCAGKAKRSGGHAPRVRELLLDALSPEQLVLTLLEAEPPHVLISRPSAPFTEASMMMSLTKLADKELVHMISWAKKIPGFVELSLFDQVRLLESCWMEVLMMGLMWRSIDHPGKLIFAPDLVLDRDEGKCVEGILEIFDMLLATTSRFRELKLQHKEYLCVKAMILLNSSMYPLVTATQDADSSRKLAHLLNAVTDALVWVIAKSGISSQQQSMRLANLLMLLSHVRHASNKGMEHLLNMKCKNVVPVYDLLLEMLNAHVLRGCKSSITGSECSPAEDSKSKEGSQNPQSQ
structure (smiles),measurement,setting,value
CCN(CC)CCNC(=O)c1cc(Cl)c(N)cc1OC,IC50,Estrogen receptor beta,> 50 µM (not active)
Cc1cc(-c2ccccc2)cc(-c2ccccc2)[n+]1CCc1ccccc1.[O-][Cl+3]([O-])([O-])[O-],AC50,INS1,< 0.195 µM (active)
same,EC50,[1],> 160 µM (inactive)
same,EC50,[2],> 60 µM (not active)
same,EC50,[3],2.98 µM (active)
same,EC50,cells [4],0.07 µM (active)
same,EC50,[5],< 0.1 µM (active)
CCN(CC)CCCNC(=O)c1c(O)nc2c(c1O)CCCC2,EC50,[6],> 50 µM (active)
COCCn1c(C)cc(C(=O)COc2nc3ccccc3nc2C)c1C,IC50,Galanin receptor type 3,3.67 µM (active)
same,EC50,cells [7],> 29.9 µM (inactive)
COc1cccc(NC(=O)CN(C)C(C)C(=O)Nc2ccc(S(=O)(=O)N3CCOCC3)cc2)c1 (centres undefined),EC50,[6],> 50 µM (active)
O=C(CSc1nc2ccccc2[nH]1)Nc1nc(-c2cccc(Br)c2)cs1,IC50,[8],> 69.5 µM (inactive)
same,AC50,[9],38.4 µM (active)
same,AC50,[10],35.4 µM (active)
same,IC50,[11],> 69.5 µM (inactive)
same,AC50,[12],24.2 µM (active)
COCCOC(=O)c1[nH]c2c(c1C)C(=O)CC(c1ccco1)C2 (centres undefined),IC50,Estrogen receptor,19.5 µM (active)
COc1ccc(C2CC(c3cccs3)=NN2C(=O)CN2CCCCC2)cc1 (centres undefined),EC50,[13],> 67.5 µM (inactive)
same,IC50,[14],> 67.5 µM (inactive)
O=C(c1cccs1)N1N=C(c2ccccc2)CC1c1ccc(O)cc1 (centres undefined),IC50,[8],> 69.5 µM (inactive)
same,CC50,[15],24.2 µM (active)
same,IC50,[11],> 69.5 µM (inactive)
CCN1CCc2nc(N)sc2C1,AC50,[16],23.4 µM (active)
O=[N+]([O-])c1ccc(-c2c[nH]c(S)n2)cc1,IC50,[17],> 100 µM (active)
same,IC50,[18],> 50 µM (inactive)
same,AC50,[19],1.99 µM (active)
same,IC50,[20],1.38 µM (active)
same,IC50,[21],11.3 µM (active)
O=C(Nc1ccon1)C12CC3CC(C1)CC(n1cnc([N+](=O)[O-])n1)(C3)C2,EC50,[2],> 60 µM (not active)
same,EC50,cells [4],0.088 µM (active)
same,EC50,[5],< 0.1 µM (active)
CC1CCN(C(=O)COc2ccc(Nc3ccccc3)cc2)CC1,EC50,[6],> 50 µM (active)
COc1ccc(NC(=O)c2ccc(-c3ccccc3)cc2)cc1NS(=O)(=O)c1ccc(F)cc1,IC50,[8],> 69.5 µM (inactive)
same,IC50,[11],> 69.5 µM (inactive)
